# Assay results taken from patent US9273033B2, “Substituted pyridone derivatives as PDE10 inhibitors” (Merck Sharp & Dohme Corp., priority 2012, dated 2016).
# Molecular target: human PDE10A2 (Homo sapiens (Human), UniProt Q9Y233)
# Test: PDE10 fluorescence polarization (IMAP FP) inhibition assay
# Format: biochemical
# Conditions: human PDE10A2, FAM-labeled cAMP substrate, read-out: PDE10A Ki
# Experimental: The activity of the compounds in accordance with the present invention as PDE10 inhibitors may be readily determined without undue experimentation using a fluorescence polarization (FP) methodology that is well known in the art (Huang, W., et al., J. Biomol Screen, 2002, 7: 215).
# In a typical experiment the PDE10 inhibitory activity of the compounds of the present invention was determined in accordance with the following experimental method. PDE10A2 was amplified from human fetal brain cDNA (Clontech, Mountain View, Calif.) using a forward primer corresponding to nucleotides 56-77 of human PDE10A2 (Accession No. AF127480, Genbank Identifier 4894716), containing a Kozak consensus sequence, and a reverse primer corresponding to nucleotides 2406-2413 of human PDE10A2 (Accession No. AF127480, Genbank Identifier 4894716). Amplification with Easy-A polymerase (Stratagene, La Jolla, Calif.) was 95° C. for 2 minutes followed by thirty three cycles of 95° C. for 40 seconds, 55° C. for 30 seconds, and 72° C. for 2 minutes 48 seconds. Final extension was 72° C. for 7 minutes. The PCR product was TA cloned into pcDNA3.2-TOPO (Invitrogen, Carlsbad, Calif.) according to standard protocol. AD293 cells with 70-80% confluency were transiently transfected with human PDE10A2/pcDNA3.2-TOPO using Lipofectamine 2000 according to manufacturer specifications (Invitrogen, Carlsbad, Calif.). Cells were harvested 48 hours post-transfection and lysed by sonication (setting 3, 10×5 sec pulses) in a buffer containing 20 mM HEPES, 1 mM EDTA and protease inhibitor cocktail (Roche). Lysate was collected by centrifugation at 75,000×g for 20 minutes. Supernatant containing the cytoplasmic fraction was used for evaluation of PDE10A2 activity. The fluorescence polarization assay for cyclic nucleotide phosphodiesterases was performed using an IMAP® FP kit supplied by Molecular Devices, Sunnyvale, Calif. (product # R8139). IMAPU technology has been applied previously to phosphodiesterase assays (Huang, W., et al., J. Biomol Screen, 2002, 7: 215). Assays were performed at room temperature in 384-well microtiter plates with an incubation volume of 20.2 μL. Solutions of test compounds were prepared in DMSO and serially diluted with DMSO to yield 8 μL of each of 10 solutions differing by 3-fold in concentration, at 32 serial dilutions per plate. 100% inhibition is determined using a known PDE10 inhibitor, which can be any compound that is present at 5,000 times its Ki value in the assay described as follows, such as papaverine (see Siuciak, et al. Neuropharmacology (2006) 51:386-396; Becker, et al. Behav Brain Res (2008) 186(2):155-60; Threlfell, et al., J Pharmacol Exp Ther (2009) 328(3):785-795), 2-{4-[pyridin-4-yl-1-(2,2,2-trifluoroethyl)-1H-pyrazol-3-yl]phenoxymethyl}quinoline succinic acid or 2-[4-(1-methyl-4-pyridin-4-yl-1H-pyrazol-3-yl)-phenoxymethyl]quinoline succinic acid (see Schmidt, et al. J Pharmacol Exp Ther (2008) 325:681-690; Threlfell, et al., J Pharmacol Exp Ther (2009) 328(3): 785-795). 0% of inhibition is determined by using DMSO (1% final concentrations).
# A Labcyte Echo 555 (Labcyte, Sunnyvale, Calif.) is used to dispense 200 nL from each well of the titration plate to the 384 well assay plate. A solution of enzyme (1/1600 dilution from aliquots; sufficient to produce 20% substrate conversion) and a separate solution of FAM-labeled cAMP PDE from Molecular Devices (product # R7506), at a final concentration of 50 nM are made in the assay buffer (10 mM Tris HCl, pH 7.2, 10 mM MgCl2, 0.05% NaN3 0.01% Tween-20, and 1 mM DTT). The enzyme and the substrate are then added to the assay plates in two consecutive additions of 10 μL, and then shaken to mix. The reaction is allowed to proceed at room temperature for 30 minutes. A binding solution is then made from the kit components, comprised of 80% Solution A, 20% Solution B and binding reagent at a volume of 1/600 the total binding solution.
# human PDE10A2, sequence (Q9Y233 267-1055): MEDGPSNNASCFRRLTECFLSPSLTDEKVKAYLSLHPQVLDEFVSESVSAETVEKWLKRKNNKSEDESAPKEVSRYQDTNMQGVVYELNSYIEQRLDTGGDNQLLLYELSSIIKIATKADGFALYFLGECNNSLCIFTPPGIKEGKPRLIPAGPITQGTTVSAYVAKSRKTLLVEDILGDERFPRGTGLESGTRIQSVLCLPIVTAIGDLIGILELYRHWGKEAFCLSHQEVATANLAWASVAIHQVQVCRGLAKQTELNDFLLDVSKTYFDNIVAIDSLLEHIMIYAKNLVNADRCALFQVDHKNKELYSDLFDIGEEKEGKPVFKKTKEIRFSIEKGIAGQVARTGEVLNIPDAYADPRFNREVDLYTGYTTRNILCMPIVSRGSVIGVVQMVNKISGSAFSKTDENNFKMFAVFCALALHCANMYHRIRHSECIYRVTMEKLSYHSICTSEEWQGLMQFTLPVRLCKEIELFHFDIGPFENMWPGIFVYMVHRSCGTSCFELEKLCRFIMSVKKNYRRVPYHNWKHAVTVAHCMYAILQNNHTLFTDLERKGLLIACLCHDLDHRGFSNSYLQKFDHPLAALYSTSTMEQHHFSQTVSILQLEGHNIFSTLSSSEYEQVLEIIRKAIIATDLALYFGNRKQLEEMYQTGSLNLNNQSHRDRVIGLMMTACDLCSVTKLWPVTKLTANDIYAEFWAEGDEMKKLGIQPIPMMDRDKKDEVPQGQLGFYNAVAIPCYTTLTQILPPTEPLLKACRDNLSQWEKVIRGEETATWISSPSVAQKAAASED
compound,measurement,value
"Cc1ccc([C@H]2C[C@@H]2COc2nc(C)ncc2-c2ccn(C3CC3)c(=O)c2)nc1 [Example 133, 1-cyclopropyl-4-(2-methyl-4-(((1S,2S)-2-(5-methylpyridin-2-yl)cyclopropyl)methoxy)pyrimidin-5-yl)pyridin-2(1H)-one]",Ki,0.935 nM
"Cc1ncc(-c2ccn(C)c(=O)c2)c(OC[C@@H]2C[C@H]2c2ccc(F)cn2)n1 [Example 84, 4-(4-(((1R,2R)-2-(5-fluoropyridin-2-yl)cyclopropyl)methoxy)-2-methylpyrimidin-5-yl)-1-methylpyridin-2(1H)-one]",Ki,88.4 nM
"COc1ccc([C@H]2C[C@@H]2COc2nc(C)ncc2-c2cc(=O)n(C)cc2[S+](C)[O-])nc1 (single isomer, unassigned) [Example 110, 4-(4-(((1S,2S)-2-(5-methoxypyridin-2-yl)cyclopropyl)methoxy)-2-methylpyrimidin-5-yl)-1-methyl-5-(methylsulfinyl)pyridin-2(1H)-one, S or R]",Ki,49 nM
"Cc1ccc([C@H]2C[C@@H]2COc2nc(C)ncc2-c2cc(=O)[nH]cc2C)nc1 [Example 71, 5-methyl-4-(2-methyl-4-(((1S,2S)-2-(5-methylpyridin-2-yl)cyclopropyl)methoxy)pyrimidin-5-yl)pyridin-2(1H)-one]",Ki,1.01 nM
"CCn1c(C)c(-c2cnc(C)nc2OC[C@H]2C[C@@H]2c2ccc(C)cn2)ccc1=O [Example 4, 1-ethyl-6-methyl-5-(2-methyl-4-(((1S,2S)-2-(5-methylpyridin-2-yl)cyclopropyl)methoxy)pyrimidin-5-yl)pyridin-2(1H)-one]",Ki,1.95 nM
"Cc1ccc([C@H]2C[C@@H]2COc2nc(C)ncc2-c2cc(=O)n(C)cn2)nc1 [Example 141, 3-methyl-6-(2-methyl-4-(((1S,2S)-2-(5-methylpyridin-2-yl)cyclopropyl)methoxy)pyrimidin-5-yl)pyrimidin-4(3H)-one]",Ki,5.46 nM
"Cc1ccc([C@H]2C[C@@H]2COc2nc(C)ncc2-c2cc(F)c(=O)n(C)c2)nc1 [Example 25, 3-fluoro-1-methyl-5-(2-methyl-4-(((1S,2S)-2-(5-methylpyridin-2-yl)cyclopropyl)methoxy)pyrimidin-5-yl)pyridin-2(1H)-one]",Ki,1.55 nM
"Cc1ccc([C@H]2C[C@@H]2COc2nc(C)ncc2-c2cc(C#N)c(=O)n(C)c2C)nc1 [Example 59, 1,6-dimethyl-5-(2-methyl-4-(((1S,2S)-2-(5-methylpyridin-2-yl)cyclopropyl)methoxy)pyrimidin-5-yl)-2-oxo-1,2-dihydropyridine-3-carbonitrile]",Ki,0.426 nM
"Cc1ccc([C@H]2C[C@@H]2COc2nc(C)ncc2-c2ccc(=O)n(CC3CC3)c2)nc1 [Example 49, 1-(cyclopropylmethyl)-5-(2-methyl-4-(((1S,2S)-2-(5-methylpyridin-2-yl)cyclopropyl)methoxy)pyrimidin-5-yl)pyridin-2(1H)-one]",Ki,0.983 nM
"COCCn1cc(-c2cnc(C)nc2OC[C@H]2C[C@@H]2c2ccc(C)cn2)ccc1=O [Example 6, 1-(2-methoxyethyl)-5-(2-methyl-4-(((1S,2S)-2-(5-methylpyridin-2-yl)cyclopropyl)methoxy)pyrimidin-5-yl)pyridin-2(1H)-one]",Ki,1.38 nM
"Cc1ccc([C@H]2C[C@@H]2COc2nc(C)ncc2-c2nn(C)c(=O)cc2C)nc1 [Example 68, 2,5-dimethyl-6-(2-methyl-4-(((1S,2S)-2-(5-methylpyridin-2-yl)cyclopropyl)methoxy)pyrimidin-5-yl)pyridazin-3(2H)-one]",Ki,9.68 nM
"COc1ccc([C@H]2C[C@@H]2COc2nc(C)ncc2-c2cc(=O)n(C)cc2[S+](C)[O-])nc1 (single isomer, unassigned) [Example 109, 4-(4-(((1S,2S)-2-(5-methoxypyridin-2-yl)cyclopropyl)methoxy)-2-methylpyrimidin-5-yl)-1-methyl-5-(methylsulfinyl)pyridin-2(1H)-one,R or S]",Ki,63.8 nM
"COCCn1c(C)c(-c2cnc(C)nc2OC[C@H]2C[C@@H]2c2ccc(OC)cn2)ccc1=O [Example 30, 1-(2-methoxyethyl)-5-(4-(((1S,2S)-2-(5-methoxypyridin-2-yl)cyclopropyl)methoxy)-2-methylpyrimidin-5-yl)-6-methylpyridin-2(1H)-one]",Ki,1.46 nM
"COc1ccc([C@H]2C[C@@H]2COc2nc(C)ncc2-c2cc(=O)n(C)cc2Cl)nc1 [Example 73, 5-chloro-4-(4-(((1S,2S)-2-(5-methoxypyridin-2-yl)cyclopropyl)methoxy)-2-methylpyrimidin-5-yl)-1-methylpyridin-2(1H)-one]",Ki,1.13 nM
"COc1ccc([C@H]2C[C@@H]2COc2nc(C)ncc2-c2cc(=O)n(C)cn2)nc1 [Example 142, 6-(4-(((1S,2S)-2-(5-methoxypyridin-2-yl)cyclopropyl)methoxy)-2-methylpyrimidin-5-yl)-3-methylpyrimidin-4(3H)-one]",Ki,6.04 nM
"COc1cc(-c2cnc(C)nc2OC[C@H]2C[C@@H]2c2ccc(C)cn2)cn(C)c1=O [Example 57, 3-methoxy-1-methyl-5-(2-methyl-4-(((1S,2S)-2-(5-methylpyridin-2-yl)cyclopropyl)methoxy)pyrimidin-5-yl)pyridin-2(1H)-one]",Ki,0.349 nM
"COc1ccc([C@H]2C[C@@H]2COc2nc(C)ncc2-c2ccc(=O)n(C)c2)nc1 [Example 2, 5-(4-(((1S,2S)-2-(5-methoxypyridin-2-yl)cyclopropyl)methoxy)-2-methylpyrimidin-5-yl)-1-methylpyridin-2(1H)-one]",Ki,1.01 nM
"Cc1ccc([C@H]2C[C@@H]2COc2nc(C)ncc2-c2ccc(=O)n(C(C)C)c2)nc1 [Example 13, 1-isopropyl-5-(2-methyl-4-(((1S,2S)-2-(5-methylpyridin-2-yl)cyclopropyl)methoxy)pyrimidin-5-yl)pyridin-2(1H)-one]",Ki,0.823 nM
"Cc1ncc(-c2ccc(=O)n(-c3ccccc3)c2)c(OC[C@H]2C[C@@H]2c2ccc3ccccc3n2)n1 [Example 10, 5-(2-methyl-4-(((1S,2S)-2-(quinolin-2-yl)cyclopropyl)methoxy)pyrimidin-5-yl)-1-phenylpyridin-2(1H)-one]",Ki,0.216 nM
"Cc1ccc([C@H]2C[C@@H]2COc2nc(C)ncc2-c2ccc(=O)n(C)c2C)nc1 [Example 3, 1,6-dimethyl-5-(2-methyl-4-(((1S,2S)-2-(5-methylpyridin-2-yl)cyclopropyl)methoxy)pyrimidin-5-yl)pyridin-2(1H)-one]",Ki,0.217 nM
"COCCn1cc(-c2cnc(C)nc2OC[C@H]2C[C@@H]2c2ccc(OC)cn2)ccc1=O [Example 39, 1-(2-methoxyethyl)-5-(4-(((1S,2S)-2-(5-methoxypyridin-2-yl)cyclopropyl)methoxy)-2-methylpyrimidin-5-yl)pyridin-2(1H)-one]",Ki,0.821 nM
"CCn1cc(-c2cnc(C)nc2OC[C@H]2C[C@@H]2c2ccc(C)cn2)cc(C)c1=O [Example 41, 1-ethyl-3-methyl-5-(2-methyl-4-(((1S,2S)-2-(5-methylpyridin-2-yl)cyclopropyl)methoxy)pyrimidin-5-yl)pyridin-2(1H)-one]",Ki,0.533 nM
"COc1ccc([C@H]2C[C@@H]2COc2nc(C)ncc2-c2ccn(CC(F)F)c(=O)c2)nc1 [Example 130, 1-(2,2-difluoroethyl)-4-(4-(((1S,2S)-2-(5-methoxypyridin-2-yl)cyclopropyl)methoxy)-2-methylpyrimidin-5-yl)pyridin-2(1H)-one]",Ki,0.386 nM
